Common to all, as to assay type: physicochemical
A short description of data set [1]: In vitro polymerization test of collagen/antibiotic compositions injected into WFI. To be noted: 27-gauge needle. As for the experimental part: 50 mg lyophilized and powdered (by mortar and pestle) Voriconazole was mixed with 200 μL of in situ polymerizable collagen solution prepared according to Example 1 by passing the powder into the collagen solution using two syringes attached with a female-female adaptor. The mixture appeared clear and transparent (FIG. 4A). Aliquots were injected into water for injection (WFI) using a 27-gauge needle. A control sample composed of in situ polymerizable collagen solution only was also injected into WFI.
Two other antibiotics, Cefuroxime and Vigamox, were mixed to in situ polymerizable collagen using the same method used for adding Voriconazole to the collagen to form a collagen/antibiotic composition, respectively. […] The appearance of the mixture depends on the solubility of the antibiotics.

Data set [2] in a line: In vitro release of Compstatin from in situ polymerizable collagen. As for the experimental part: Delivery of a complement peptide-Compstatin from in situ polymerizable collagen prepared according to Example 1 was studied in vitro. In vitro release was measured for 6 weeks to ascertain the optimum collagen formulation.
Data set [3] is described as follows: Short-term controlled release of lidocaine from collagen gel into 0.9% NaCl (HPLC). The note with it: gel in 0.9% NaCl, 37° C., 80 RPM; FIG. 6.
Description: One third of the same volume of collagen solution of a lidocaine sterile solution (0.9% Lidocaine, 7% Mannitol, 80 mM EDTA-2Na, 0.05M Na2CO3 and 0.05M NaHCO3) was added to collagen. 2 mL final mixed collagen solution was incubated under 37° C. to form a gel and put into 20 mL 37° C. 0.9% NaCl solution with a stir bar stirring at 80 RPM. At 10 min, 20 min, 30 min, 60 min, 90 min, and 120 min, 2 mL NaCl solution was collected to test lidocaine concentration and additional 2 mL 0.9% NaCl solution was replenished. HPLC method was used to measured lidocaine concentration and calculated to the percentage release of the lidocaine in collagen gel.
Data set [4] in a line: In vitro release of latanoprost from in situ polymerizable collagen gels into physiological saline (HPLC). As for the experimental part: Latanoprost (13,14-dihydro-17-phenyl-18,19,20-trinor-prostaglandin F2a-1-isopropyl ester) was obtained from Sigma-Aldrich. Soluble, pepsin digested, bovine collagen for drug delivery formulations was purchased from Advanced Biomatrix. In situ polymerizable collagen was prepared according to Example 1 by extensive dialysis of salt precipitated collagen against 0.035M EDTA with step-wise increase in pH to 7.5. Latanoprost was dissolved in 95% ethanol and added to polymerizable collagen solution to provide gel depots containing 250 μg latanoprost/100 μL collagen. The solutions were incubated in 1.0 mL of physiological saline at 37° C. The entire 1.0 mL volume was removed at time periods ranging from 1 day to 174 days and replaced with 1.0 mL of fresh saline. Latanoprost concentration in saline aliquots was measured by HPLC analysis (Millennium Research Laboratories).
In situ polymerizable collagen gels provided sustained in vitro release of Latanoprost for more than 30 days.

Data set [5] in a line: Film formation of sprayed in situ polymerizable collagen on skin or skin wounds. To be noted: EGF 5,000-20,000 IU/mL. As for the experimental part:
The sprayable in situ polymerizable collagen was prepared by mix in situ polymerizable collagen prepared in Example 1 with PBS at volume ratio of 2:1. After mixing by stirring at 50 rpm for 10 min, the gel was centrifuge to remove the bubbles. The sprayable in situ polymerizable collagen was less viscous with better flowability and placed in a spray bottle and still remained transparent under room temperature. […] The in situ polymerizable collagen solution with EGF was sprayed to skin wounds through spray bottle and formed a film to cover the wound within 120 sec, providing a wet healing environment and continuous EGF delivery to accelerate skin healing or improve skin condition.

A value given as a limit tells only on which side of the number the result lay.

As for `CO/N=C(\C(=O)N[C@@H]1C(=O)N2C(C(=O)O)=C(COC(N)=O)CS[C@H]12)c1ccco1` [Cefuroxime], the collagen fibril formation result in data set [1] is “do not blocking the fibril formation”.
Take `CC[C@H](C)[C@H](N)C(=O)N[C@H]1CSSC[C@@H](C(=O)N[C@H](C(N)=O)[C@@H](C)O)NC(=O)[C@H](CCCN=C(N)N)NC(=O)[C@H](Cc2cnc[nH]2)NC(=O)[C@H](Cc2cnc[nH]2)NC(=O)CNC(=O)[C@H](Cc2c[nH]c3ccccc23)NC(=O)[C@H](CC(=O)O)NC(=O)[C@H](CCC(N)=O)NC(=O)[C@H](C(C)C)NC(=O)[C@H](C(C)C)NC1=O` [Compstatin]: in data set [2], the “duration of initial burst” value is given as 4 days and the “duration of sustained release” value is recorded as 6 weeks. In data set [2] (measured for 6 weeks), the release kinetics result is “bi-phasic release kinetics”.
As for `CCN(CC)CC(=O)Nc1c(C)cccc1C` [lidocaine], the “controlled release of lidocaine” value in data set [3] is given as “within two hours”.
Take `CC(C)OC(=O)CCC/C=C\C[C@@H]1[C@@H](CC[C@@H](O)CCc2ccccc2)[C@H](O)C[C@@H]1O` [Latanoprost, 13,14-dihydro-17-phenyl-18,19,20-trinor-prostaglandin F2a-1-isopropyl ester]: the “duration of sustained in vitro release of Latanoprost” value in data set [4] (in situ polymerizable collagen gels, saline 37° C.) is on record as “more than 30 days”. Also, the “initial release of Latanoprost” value in data set [4] (polymerizable gels added directly to saline solution) is on record as “large initial release”; in data set [4] (polymerizable gels partially pre-polymerized), “reduced initial release”. Moreover, in data set [4] (polymerizable gels added directly to saline solution, 250 μg latanoprost/100 μL collagen, 37° C.), the “sustained release of Latanoprost, average” value is 0.54 µg/day. In data set [4] (polymerizable gels partially pre-polymerized before placing in solution, 250 μg latanoprost/100 μL collagen, 37° C.), the “average sustained release rate of Latanoprost” value was 1.4 µg/day.
For “EGF: Epidermal Growth Factor lyophilized powder dissolved in in situ polymerizable collagen solution, 5,000-20,000 IU/mL”, the “time to form a film covering the wound” value in data set [5] was at most 120 s.

(Values after patent US20250213697A1, “INJECTABLE AND/OR SPRAYABLE, IN SITU POLYMERIZABLE COLLAGEN COMPOSITIONS FOR SUSTAINED DELIVERY OF THERAPEUTICS” (priority 2023, published 2025).)
